Patent US20070128217A1 (priority 2003, published 2007)

Columns and labels:
[1] = tested on: control sera (pooled serum of ten healthy LUMC hospital workers; commercial negative donor pooled serum from the Dutch bloodbank); format: binding, human; design: Binding of Control serum LUMC to linear peptides / Binding of Control serum Blood-bank to linear peptides / Binding of Control serum LUMC to looped peptides / Binding of Control Serum Blood-Bank to Looped peptides / Binding of Control serum LUMC to linear peptides of the protein M of SARS-CoV Urbani / Binding of Control serum Blood-bank to linear peptides of the protein M of SARS-CoV Urbani / Binding of Control serum LUMC to looped peptides of the protein M of SARS-CoV Urbani / Binding of Control Serum Blood-Bank to Looped peptides of the protein M of SARS-CoV Urbani: unit not given here
[2] = tested on: recombinant human anti-SARS-CoV antibody 03-018; format: binding; design: Binding of antibody 03-018 to linear peptides of the N protein of SARS-CoV Urbani / Binding of antibody 03-018 to looped/cyclic peptides of the N protein of SARS-CoV Urbani: unit not given here
[3] = tested on: antibodies in sera from SARS patients (sera 1a, 1b, 2, 6, 37, 62, London, SARS-yellow, SARS-green); format: binding, human; design: Binding of serum 6 to linear peptides of protein X1 of SARS-CoV Urbani / Binding of serum 37 to linear peptides of protein X1 of SARS-CoV Urbani / Binding of serum 6 to looped/cyclic peptide (PEPSCAN-ELISA) / Binding of serum 37 to looped/cyclic peptide (PEPSCAN-ELISA) / Binding of serum 37 to looped/cyclic peptides of protein X1 of SARS-CoV Urbani / Binding of serum 6 to linear peptides of protein X2 / Binding of serum 37 to linear peptides of protein X2 / Binding of serum 37 to looped/cyclic peptides of protein X2 of SARS-CoV Urbani / Binding of serum 6 to linear peptides of protein M of SARS-CoV Urbani / Binding of serum 37 to linear peptides of protein M of SARS-CoV Urbani / Binding of serum 6 to looped/cyclic peptides of protein M of SARS-CoV Urbani / Binding of serum 37 to looped/cyclic peptides of protein M of SARS-CoV Urbani / Binding of serum 6 to linear peptides of protein X3 of SARS-CoV Urbani / Binding of serum 37 to linear peptides of protein X3 of SARS-CoV Urbani / Binding of serum 37 to looped/cyclic peptides of protein X3 of SARS-CoV Urbani / Binding of serum 6 to linear peptides of protein X4 of SARS-CoV Urbani / Binding of serum 37 to linear peptides of protein X4 of SARS-CoV Urbani / Binding of serum 37 to looped/cyclic peptides of protein X4 of SARS-CoV Urbani / Binding of serum 6 to linear peptides of protein X5 of SARS-CoV Urbani / Binding of serum 37 to linear peptides of protein X5 of SARS-CoV Urbani / Binding of serum 37 to looped/cyclic peptides of protein X5 of SARS-CoV Urbani / Binding of serum 6 to linear peptides of protein N of SARS-CoV Urbani / Binding of serum 37 to linear peptides of protein N of SARS-CoV Urbani / Binding of serum 6 to linear peptide (PEPSCAN-ELISA) / Binding of serum 1a to looped/cyclic peptides of protein N of SARS-CoV Urbani / Binding of serum 1b to looped/cyclic peptides of protein N of SARS-CoV Urbani / Binding of serum 2 to looped/cyclic peptides of protein N of SARS-CoV Urbani / Binding of serum 6 to looped/cyclic peptides of protein N of SARS-CoV Urbani / Binding of serum 37 to looped/cyclic peptides of protein N of SARS-CoV Urbani / Binding of serum 62 to looped/cyclic peptides of protein N of SARS-CoV Urbani / Binding of serum London to looped/cyclic peptides of protein N of SARS-CoV Urbani / Binding of serum SARS-green to looped/cyclic peptides of protein N of SARS-CoV Urbani: unit not given here
[4] = tested on: rabbit serum obtained by immunizing a rabbit with the SARS-CoV strain Frankfurt 1; format: binding; design: Binding of a rabbit serum to linear peptides / Binding of a rabbit serum to looped peptides / Rabbit serum linear peptides / Rabbit serum looped peptides / Binding of a rabbit serum to linear peptides of protein N of SARS-CoV Urbani (Rabbit serum linear peptides) / Binding of a rabbit serum to looped/cyclic peptides of protein N of SARS-CoV Urbani (Rabbit serum looped peptides): unit not given here

Row | Sequence | Binding of Control Serum Blood-Bank to Looped peptides [1] | Binding of Control serum Blood-bank to linear peptides [1] | Binding of Control serum LUMC to linear peptides [1] | Binding of Control serum LUMC to looped peptides [1] | Binding of antibody 03-018 to linear peptides of the N protein of SARS-CoV Urbani [2] | Binding of antibody 03-018 to looped/cyclic peptides of the N protein of SARS-CoV Urbani [2] | Binding of serum 1a to looped/cyclic peptides of protein N of SARS-CoV Urbani [3] | Binding of serum 1b to looped/cyclic peptides of protein N of SARS-CoV Urbani [3] | Binding of serum 2 to looped/cyclic peptides of protein N of SARS-CoV Urbani [3] | Binding of serum 6 to looped/cyclic peptides of protein N of SARS-CoV Urbani [3] | Binding of serum 37 to looped/cyclic peptides of protein N of SARS-CoV Urbani [3] | Binding of serum 62 to looped/cyclic peptides of protein N of SARS-CoV Urbani [3] | Binding of serum London to looped/cyclic peptides of protein N of SARS-CoV Urbani [3] | Binding of serum SARS-green to looped/cyclic peptides of protein N of SARS-CoV Urbani [3] | Binding of serum SARS-yellow to looped/cyclic peptides of protein N of SARS-CoV Urbani [3] | Binding of a rabbit serum to linear peptides of protein N of SARS-CoV Urbani (Rabbit serum linear peptides) [4] | Binding of a rabbit serum to looped/cyclic peptides of protein N of SARS-CoV Urbani (Rabbit serum looped peptides) [4] | Binding of serum 1a to linear peptides of protein N of SARS-CoV Urbani [3] | Binding of serum 1b to linear peptides of protein N of SARS-CoV Urbani [3] | Binding of serum 2 to linear peptides of protein N of SARS-CoV Urbani [3] | further results
1 | SSRGNSPARMASGGG | 0.8 | 0.8 | 0.9 | 0.9 | 0.1 | 0.2 | 0.4 | 0.2 | 0.5 | 0.4 | 0.4 | 0.5 | 0.8 | 0.6 | 0.5 | 0.2 | 0.0 |  |  |  | Binding of serum 1a to linear peptide (PEPSCAN-ELISA) [3]: 0.4; Binding of serum 1b to linear peptide (PEPSCAN-ELISA) [3]: 0.3; Binding of serum 2 to linear peptide (PEPSCAN-ELISA) [3]: 0.2; Binding of serum 6 to linear peptide (PEPSCAN-ELISA) [3]: 0.2; Binding of serum 37 to linear peptide (PEPSCAN-ELISA) [3]: 0.5; Binding of serum 62 to linear peptide (PEPSCAN-ELISA) [3]: 0.6; Binding of serum London to linear peptide (PEPSCAN-ELISA) [3]: 0.5; Binding of serum SARS-green to linear peptide (PEPSCAN-ELISA) [3]: 1.0; Binding of serum SARS-yellow to linear peptide (PEPSCAN-ELISA) [3]: 0.7
2 | LQNSMSGASADSTQA |  |  |  |  | 0.2 | 0.2 | 0.2 | 0.1 | 0.4 | 0.0 | 0.5 | 0.1 | 0.1 | 0.0 | 0.0 | 0.9 | 0.4 | 0.2 | 0.1 | 0.1 | Control Serum Blood-Bank Looped peptides [1]: 0.0; Control serum Blood-bank linear peptides [1]: 0.7; Control serum LUMC linear peptides [1]: 0.5; Control serum LUMC looped peptides [1]: 0.2; Binding of serum 6 to linear peptides of protein N of SARS-CoV Urbani [3]: 0.2; Binding of serum 37 to linear peptides of protein N of SARS-CoV Urbani [3]: 0.6; Binding of serum 62 to linear peptides of protein N of SARS-CoV Urbani [3]: 0.4; Binding of serum London to linear peptides of protein N of SARS-CoV Urbani [3]: 0.6; Binding of serum SARS-green to linear peptides of protein N of SARS-CoV Urbani [3]: 0.4; Binding of serum SARS-yellow to linear peptides of protein N of SARS-CoV Urbani [3]: 0.6
3 | QGQTVTKKSAAEASK | 0.4 | 1.1 | 1.0 | 0.4 | 0.1 | 0.2 | 0.2 | 0.1 | 0.2 | 0.1 | 0.4 | 0.2 | 0.3 | 0.1 | 0.2 | 0.2 | 0.2 |  |  |  | Recognition of the peptide by sera of SARS-CoV infected individuals, and form (linear, looped/cyclic) in which it is recognized [3]: recognized in linear form
4 | KSAAEASKKPRQKRT | 0.4 | 0.7 | 0.7 | 0.4 | 0.1 | 0.1 | 0.2 | 0.1 | 0.2 | 0.1 | 0.4 | 0.2 | 0.3 | 0.1 | 0.1 | 0.1 | 0.2 |  |  |  | Recognition of the peptide by sera of SARS-CoV infected individuals, and form (linear, looped/cyclic) in which it is recognized [3]: recognized in linear form
5 | NSGPDDQIGYYRRAT | 0.7 | 0.7 | 0.7 | 0.8 | 0.1 | 0.2 | 0.5 | 0.3 | 0.5 | 0.3 | 1.0 | 0.7 | 0.5 | 0.5 | 0.6 | 0.1 | 0.5 | 0.2 | 0.1 | 0.1 | Binding of serum 6 to linear peptides of protein N of SARS-CoV Urbani [3]: 0.2; Binding of serum 37 to linear peptides of protein N of SARS-CoV Urbani [3]: 0.7; Binding of serum 62 to linear peptides of protein N of SARS-CoV Urbani [3]: 0.6; Binding of serum London to linear peptides of protein N of SARS-CoV Urbani [3]: 0.4; Binding of serum SARS-green to linear peptides of protein N of SARS-CoV Urbani [3]: 0.1; Binding of serum SARS-yellow to linear peptides of protein N of SARS-CoV Urbani [3]: 0.5
